US5488051A, “Substituted 5,6-dihydro-5-oxo-1,4-dithiino-(2,3-d)-pyridazine-2,3-dicarbonitriles, compositions containing them and their use as antimicrobials” (The Dow Chemical Company, priority 1994, dated 1996)
Converted amounts (≈) assume the structure as drawn. Like-named read-outs stand apart in the source and are kept apart here.

Tests used:
[1] = test system: Aureobasidium pullulan (Ap); assay: MIC for Aureobasidium pullulan, malt yeast agar; type: cell-based, Aureobasidium pullulan ATCC 16622; details: malt yeast agar; 30° C.; 48 hours for yeast and 72 hours for fungi; read-out: Minimum Inhibitory Concentration (MIC), Ap
Experimental: (§1) The minimum inhibitory concentration (MIC) for the compounds listed in Table I is determined for 9 bacteria, using nutrient agar; and 7 yeast and fungi, using malt yeast agar. A one percent solution of the test compound is prepared in a mixture of acetone and water.
(§2) Malt yeast agar is prepared by adding 3 g yeast extract and 45 g malt agar per liter of deionized water. The specific agar is dispensed in 30 mL aliquots into 25×200 mm test tubes, capped and autoclaved for 15 minutes at 115° C.
(§3) The test tubes containing the malt yeast agar and the nutrient agar are cooled in a water bath until the temperature of the agar is 48° C. Then, an appropriate amount of the one percent solution of the test compound is added (except in the controls where no compound is added) to the respective test tubes so that the final concentrations are zero (0), 1.0, 2.5, 5, 10, 25, 50, 100, 250 and 500 parts per million of the test compound in each of the respective type of agar. The contents of each of the test tubes are then transferred to separate petri plates. After drying for 24 hours, the petri plates containing nutrient agar are inoculated with bacteria and those containing malt yeast agar are inoculated with yeast and fungi.
(§4) The inoculation with the yeast and fungi is accomplished as follows. Cultures of yeast and fungi are incubated for seven days on malt yeast agar at 30° C. These cultures are used to prepare suspensions by the following procedure. A suspension of each organism is prepared by adding 10 mL of sterile saline and 10 microliters of octylphenoxy polyethoxy ethanol to the agar slant of yeast or fungi. The sterile saline/octylphenoxy polyethoxy ethanol solution is then agitated with a sterile swab to suspend the microorganism grown on the slant. Each resulting suspension is diluted into sterile saline (1 part suspension: 9 parts sterile saline). Aliquots of these dilutions are placed in individual wells of Steer's Replicator and petri plates inoculated as previously described. The petri plates are incubated at 30° C. and read after 48 hours for yeast and 72 hours for fungi.
(§5) Table II list the bacteria, yeast and fungi used in the MIC test described above along with their respective American Type Culture Collection (ATCC) identification numbers.

[2] = test system: Salmonella choleraesuis; assay: MIC for Salmonella choleraesuis, nutrient agar; type: cell-based, Salmonella choleraesuis ATCC 10708; details: Salmonella enterica, 30° C., 48 hours, read-out: Minimum Inhibitory Concentration (MIC), SC
Experimental: as §1
(§6) Nutrient agar is prepared at pH 6.8, representing a neutral medium, and at pH 8.2, representing an alkaline medium. The nutrient agars are prepared by adding 23 g of nutrient agar to one-liter of deionized water. In addition, the alkaline medium is prepared by adjusting a 0.04M solution of N-[tris-(hydroxymethyl)methyl]-glycine buffered deionized water with concentrated sodium hydroxide to a pH of 8.5.
as §3
(§7) The inoculation with bacteria is accomplished by using the following procedure. Twenty-four hour-cultures of each of the bacteria are prepared by incubating the respective bacteria in tubes containing nutrient broth for 24 hours at 30° C. in a shaker. Dilutions of each of the 24 hour-cultures are made so that nine separate suspensions (one for each of the nine test bacteria) are made, each containing 10^8 colony forming units (CFU) per mL of suspension of a particular bacteria. Aliquots of 0.3 mL of each of the bacterial suspensions are used to fill the individual wells of Steer's Replicator. For each microbial suspension, 0.3 mL was used to fill three wells (i.e., three wells of 0.3 mL each) so that for the nine different bacteria, 27 wells are filled. The Steer's Replicator is then used to inoculate both the neutral and alkaline pH nutrient agar petri plates.
(§8) The inoculated petri plates are incubated at 30° C. for 48 hours and then read to determine if the test compound which is incorporated into the agar prevented growth of the respective bacteria.
as §5

[3] = test system: Aspergillus niger (An); assay: MIC for Aspergillus niger, malt yeast agar; type: cell-based, Aspergillus niger ATCC 16404; details: malt yeast agar; 30° C., 72 hours for fungi; read-out: Minimum Inhibitory Concentration (MIC), An
Experimental: as §1, §2, §3, §4, §5

[4] = test system: Proteus vulgaris (Pv); assay: MIC for Proteus vulgaris, nutrient agar; type: cell-based, Proteus vulgaris ATCC 881; details: 30° C., 48 hours, read-out: Minimum Inhibitory Concentration (MIC), Pv
Experimental: as §1, §6, §3, §7, §8, §5

[5] = test system: Penicillium chrysogenum (Pc); assay: MIC for Penicillium chrysogenum, malt yeast agar; type: cell-based, Penicillium chrysogenum ATCC 9480; details: malt yeast agar; 30° C., 72 hours for fungi; read-out: Minimum Inhibitory Concentration (MIC), PC
Experimental: as §1, §2, §3, §4, §5

[6] = test system: Enterobacter aerogenes (Ea); assay: MIC for Enterobacter aerogenes, nutrient agar; type: cell-based, Enterobacter aerogenes ATCC 13048; details: Klebsiella aerogenes, nutrient agar, 30° C., 48 hours, read-out: Minimum Inhibitory Concentration (MIC), Ea
Experimental: as §1, §6, §3, §7, §8, §5

[7] = test system: Pseudomonas aeruginosa (Pa); assay: MIC for Pseudomonas aeruginosa, nutrient agar; type: cell-based, Pseudomonas aeruginosa ATCC 10145; details: 48 hours, read-out: Minimum Inhibitory Concentration (MIC), Pa
Experimental: as §1, §6, §3, §7, §8, §5

[8] = test system: Saccharomyces cerevisiae; assay: MIC for Saccharomyces cerevisiae, malt yeast agar; type: cell-based, Saccharomyces cerevisiae ATCC 4105; details: malt yeast agar, 30° C., 48 hours for yeast, read-out: Minimum Inhibitory Concentration (MIC), Sc
Experimental: as §1, §2, §3, §4, §5

[9] = test system: Pseudomonas aeruginosa (PRD-10); assay: MIC for Pseudomonas aeruginosa PRD-10, nutrient agar; type: cell-based, Pseudomonas aeruginosa ATCC 15442; details: 30° C., 48 hours, read-out: Minimum Inhibitory Concentration (MIC), PRD
Experimental: as §1, §6, §3, §7, §8, §5

[10] = test system: Candida albicans (Ca); assay: MIC for Candida albicans, malt yeast agar; type: cell-based, Candida albicans ATCC 10231; details: malt yeast agar; 30° C., 48 hours for yeast; read-out: Minimum Inhibitory Concentration (MIC), Ca
Experimental: as §1, §2, §3, §4, §5

[11] = test system: Escherichia coli (Ec); assay: MIC for Escherichia coli, nutrient agar; type: cell-based, Escherichia coli ATCC 11229; details: 30° C., 48 hours, read-out: Minimum Inhibitory Concentration (MIC), Ec
Experimental: as §1, §6, §3, §7, §8, §5

[12] = test system: Fusarium oxysporum (Fo); assay: MIC for Fusarium oxysporum, malt yeast agar; type: cell-based, Fusarium oxysporum ATCC 48112; details: malt yeast agar; 30° C., 72 hours for fungi; read-out: Minimum Inhibitory Concentration (MIC), Fo
Experimental: as §1, §2, §3, §4, §5

[13] = test system: Staphylococcus aureus (Sa); assay: MIC for Staphylococcus aureus, nutrient agar; type: cell-based, Staphylococcus aureus ATCC 6538; details: 30° C., 48 hours, read-out: Minimum Inhibitory Concentration (MIC), Sa
Experimental: as §1, §6, §3, §7, §8, §5

[14] = test system: Bacillus subtilis (Bs); assay: MIC for Bacillus subtilis, nutrient agar; type: cell-based, Bacillus subtilis ATCC 8473; details: 30° C., 48 hours, read-out: Minimum Inhibitory Concentration (MIC), Bs
Experimental: as §1, §6, §3, §7, §8, §5

[15] = test system: Klebsiella pneumonias (Kp); assay: MIC for Klebsiella pneumonias, nutrient agar; type: cell-based, Klebsiella pneumonias ATCC 8308; details: 30° C., 48 hours, read-out: Minimum Inhibitory Concentration (MIC), Kp
Experimental: as §1, §6, §3, §7, §8, §5

[16] = test system: Trichoderma viride (Tv); assay: MIC for Trichoderma viride, malt yeast agar; type: cell-based, Trichoderma viride ATCC 8678; details: malt yeast agar; 30° C., 72 hours for fungi; read-out: Minimum Inhibitory Concentration (MIC), Tv
Experimental: as §1, §2, §3, §4, §5

## Cc1ccc(Cn2ncc3c(c2=O)SC(C#N)=C(C#N)S3)cc1 [K, 5,6-dihydro-6-((4-methylphenyl)methyl)-5-oxo-1,4-dithiino-(2,3-d)-pyridazine-2,3-dicarbonitrile]
[1]
  MIC: < 10 mg/L
[2]; pH 6.8, nutrient agar
  MIC: > 500 mg/L
[2]; pH 8.2, nutrient agar
  MIC: > 500 mg/L
[3]
  MIC: 25 mg/L (≈ 73.9 µM)
[4]; pH 6.8, nutrient agar
  MIC: 500 mg/L (≈ 1480 µM)
[4]; pH 8.2, nutrient agar
  MIC: > 500 mg/L
[5]
  MIC: 25 mg/L (≈ 73.9 µM)
[6]; pH 6.8
  MIC: > 500 mg/L
[6]; pH 8.2
  MIC: > 500 mg/L
[7]; pH 6.8, 30° C.
  MIC: > 500 mg/L
[7]; pH 8.2, 30° C.
  MIC: > 500 mg/L
[8]
  MIC: 25 mg/L (≈ 73.9 µM)
[9]; pH 6.8, nutrient agar
  MIC: > 500 mg/L
[9]; pH 8.2, nutrient agar
  MIC: > 500 mg/L
[10]
  MIC: 25 mg/L (≈ 73.9 µM)
[11]; pH 6.8, nutrient agar
  MIC: > 500 mg/L
[11]; pH 8.2, nutrient agar
  MIC: > 500 mg/L
[12]
  MIC: 25 mg/L (≈ 73.9 µM)
[13]; pH 6.8, nutrient agar
  MIC: > 500 mg/L
[13]; pH 8.2, nutrient agar
  MIC: > 500 mg/L
[14]; pH 6.8, nutrient agar
  MIC: < 10 mg/L
[14]; pH 8.2, nutrient agar
  MIC: 100 mg/L (≈ 295 µM)
[15]; pH 6.8, nutrient agar
  MIC: > 500 mg/L
[15]; pH 8.2, nutrient agar
  MIC: > 500 mg/L
[16]
  MIC: 25 mg/L (≈ 73.9 µM)

## N#CC1=C(C#N)Sc2c(cnn(Cc3ccc(Cl)cc3)c2=O)S1 [J, 5,6-dihydro-6-((4-chlorophenyl)methyl)-5-oxo-1,4-dithiino-(2,3-d)-pyridazine-2,3-dicarbonitrile]
[1]
  MIC: < 10 mg/L
[2]; pH 6.8, nutrient agar
  MIC: > 500 mg/L
[2]; pH 8.2, nutrient agar
  MIC: > 500 mg/L
[3]
  MIC: < 10 mg/L
[4]; pH 6.8, nutrient agar
  MIC: 250 mg/L (≈ 697 µM)
[4]; pH 8.2, nutrient agar
  MIC: > 500 mg/L
[5]
  MIC: < 10 mg/L
[6]; pH 6.8
  MIC: > 500 mg/L
[6]; pH 8.2
  MIC: > 500 mg/L
[7]; pH 6.8, 30° C.
  MIC: > 500 mg/L
[7]; pH 8.2, 30° C.
  MIC: > 500 mg/L
[8]
  MIC: < 10 mg/L
[9]; pH 6.8, nutrient agar
  MIC: > 500 mg/L
[9]; pH 8.2, nutrient agar
  MIC: > 500 mg/L
[10]
  MIC: < 10 mg/L
[11]; pH 6.8, nutrient agar
  MIC: 100 mg/L (≈ 279 µM)
[11]; pH 8.2, nutrient agar
  MIC: > 500 mg/L
[12]
  MIC: < 10 mg/L
[13]; pH 6.8, nutrient agar
  MIC: 25 mg/L (≈ 69.7 µM)
[13]; pH 8.2, nutrient agar
  MIC: 100 mg/L (≈ 279 µM)
[14]; pH 6.8, nutrient agar
  MIC: < 10 mg/L
[14]; pH 8.2, nutrient agar
  MIC: 50 mg/L (≈ 139 µM)
[15]; pH 6.8, nutrient agar
  MIC: > 500 mg/L
[15]; pH 8.2, nutrient agar
  MIC: > 500 mg/L
[16]
  MIC: 25 mg/L (≈ 69.7 µM)

## N#CC1=C(C#N)Sc2c(cnn(-c3ccccc3)c2=O)S1 [A, 5,6-Dihydro-5-oxo-6-phenyl-1,4-dithiino(2,3-d)pyridazine-2,3-dicarbonitrile]
[1]
  MIC: 25 mg/L (≈ 80.6 µM)
[2]; pH 6.8, nutrient agar
  MIC: 100 mg/L (≈ 322 µM)
[2]; pH 8.2, nutrient agar
  MIC: > 500 mg/L
[3]
  MIC: 25 mg/L (≈ 80.6 µM)
[4]; pH 6.8, nutrient agar
  MIC: 50 mg/L (≈ 161 µM)
[4]; pH 8.2, nutrient agar
  MIC: > 500 mg/L
[5]
  MIC: 25 mg/L (≈ 80.6 µM)
[6]; pH 6.8
  MIC: 250 mg/L (≈ 806 µM)
[6]; pH 8.2
  MIC: > 500 mg/L
[7]; pH 6.8, 30° C.
  MIC: 250 mg/L (≈ 806 µM)
[7]; pH 8.2, 30° C.
  MIC: > 500 mg/L
[8]
  MIC: < 10 mg/L
[9]; pH 6.8, nutrient agar
  MIC: 500 mg/L (≈ 1610 µM)
[9]; pH 8.2, nutrient agar
  MIC: > 500 mg/L
[10]
  MIC: 25 mg/L (≈ 80.6 µM)
[11]; pH 6.8, nutrient agar
  MIC: 50 mg/L (≈ 161 µM)
[11]; pH 8.2, nutrient agar
  MIC: > 500 mg/L
[12]
  MIC: 25 mg/L (≈ 80.6 µM)
[13]; pH 6.8, nutrient agar
  MIC: 25 mg/L (≈ 80.6 µM)
[13]; pH 8.2, nutrient agar
  MIC: < 10 mg/L
[14]; pH 6.8, nutrient agar
  MIC: 50 mg/L (≈ 161 µM)
[14]; pH 8.2, nutrient agar
  MIC: 500 mg/L (≈ 1610 µM)
[15]; pH 6.8, nutrient agar
  MIC: 50 mg/L (≈ 161 µM)
[15]; pH 8.2, nutrient agar
  MIC: > 500 mg/L
[16]
  MIC: 25 mg/L (≈ 80.6 µM)
